Measured values as given in publication PMC12856972 (Clinical Pharmacology in Drug Development, 2025).

Legend:
healthy volunteers [1] = conditions: in vivo
healthy volunteers [2] = test: ARCI 49 abuse liability checklist
healthy volunteers [3] = test: Peak Saccadic Velocity
healthy volunteers [4] = test: Quantitative EEG profiling
healthy volunteers [5] = test: Karolinska Sleepiness Scale
healthy volunteers [6] = test: Digit Symbol Substitution Test
healthy volunteers [7] = test: Subjective feelings on VAS
[8] = Plasma PK, single ascending dose trial BNC210.001; assay type: in vivo, human; conditions: suspension, fasted
[9] = Urinary excretion of unchanged drug, trial BNC210.001; assay type: in vivo, human; conditions: suspension, fasted
[10] = Plasma PK, food effect SAD trial BNC210.002; assay type: in vivo, human; conditions: suspension
[11] = Plasma PK, multiple ascending dose trial BNC210.005; assay type: in vivo, human
[12] = Plasma PK, suspension vs 150 mg tablet cross-over trial BNC210.009; assay type: in vivo, human; conditions: 300 mg tablet
[13] = Plasma PK, SAD trial BNC210.010; assay type: in vivo, human; conditions: 150 mg‐strength tablet, fasted, up to 1200 mg
[14] = Plasma PK, 7-day trial BNC210.011; assay type: in vivo, human
α7 nAChR = α7 nAChR (Homo sapiens, UniProt P36544); test: Nicotine shift assay, qEEG α2 band; assay type: in vivo; conditions: 1,000 mg BID; particularly with 2 mg nicotine
healthy volunteers [15] = test: PEPSY psychometric test battery; assay type: in vivo, human; conditions: up to 1000 mg BID for 8 days; Day 1 and Day 8
healthy volunteers [16] = test: CCK‐4 induced panic model; assay type: in vivo, human; conditions: 2000 mg
healthy volunteers [17] = test: Safety and tolerability, Phase 1 trials; assay type: in vivo, human
[18] = test system: mouse and rat behavioral models of anxiety and stress‐related disorders; conditions: cited from earlier work
patients with GAD = conditions: cited from earlier work
[19] = test system: social anxiety disorder patients; conditions: as‐needed acute dosing, NCT05193409; cited from earlier work
patients with PTSD = conditions: 12‐week; cited from earlier work
[20] = suspension taken with food, out‐patient, NCT02933606; cited from earlier work
healthy volunteers [21] = test: Neuroendocrine biomarkers serum cortisol and ACTH; conditions: Phase 1 trials
[22] = Phase 1 trials in healthy volunteers, N = 173

α7 nAChR, sequence (P36544 23-502): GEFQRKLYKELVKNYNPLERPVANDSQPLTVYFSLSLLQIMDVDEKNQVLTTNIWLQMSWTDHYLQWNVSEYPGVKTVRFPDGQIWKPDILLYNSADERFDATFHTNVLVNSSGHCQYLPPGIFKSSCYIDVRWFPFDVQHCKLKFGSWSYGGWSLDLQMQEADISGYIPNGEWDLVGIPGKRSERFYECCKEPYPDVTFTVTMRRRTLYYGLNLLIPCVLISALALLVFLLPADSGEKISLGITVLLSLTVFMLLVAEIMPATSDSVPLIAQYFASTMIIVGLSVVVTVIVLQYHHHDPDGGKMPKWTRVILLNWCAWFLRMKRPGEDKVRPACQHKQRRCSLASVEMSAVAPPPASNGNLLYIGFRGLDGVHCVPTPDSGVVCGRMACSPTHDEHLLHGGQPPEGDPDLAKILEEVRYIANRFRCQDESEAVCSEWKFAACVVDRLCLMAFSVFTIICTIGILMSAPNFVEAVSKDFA

O=C1Nc2ccc(Cl)cc2C(c2ccccc2Cl)=NC1O (stereo not shown) [lorazepam, reference compound]
Total reaction time vs placebo (healthy volunteers [1]): significantly higher | ARCI 49 benzedrine subscale vs placebo (healthy volunteers [2]; 2 mg, P = 0.056): tended to score lower | Peak saccadic velocity (mean maximum) vs placebo (healthy volunteers [3]; 2 mg, 6, 9, and 12 h (P < 0.001)): significantly slower | qEEG delta activity vs placebo (healthy volunteers [4]; 2 mg): increased delta activity during both the Resting and Vigilance‐Controlled conditions | Karolinska Sleepiness Scale vs placebo (healthy volunteers [5]; 2 mg, 6‐h (P < 0.001), 9‐h (P < 0.05)): significant increase in the feeling of sleepiness | Digit Symbol Substitution Test vs placebo (healthy volunteers [6]; 2 mg, 6‐h (P < 0.001), 9‐hour (P < 0.05)): significant effect | eVAS mood vs placebo (healthy volunteers [7]; 2 mg, trial BNC210.003, 6 h time point, P < 0.05): mood‐lowering effect

CCn1cc(C(=O)N2CCOCC2)c(=O)c2cc(NC3Cc4ccccc4C3)cnc21 [BNC210]
Change in exposure with dose ([8]; beyond 600 mg): no appreciable further increase in exposure | Dose proportionality of AUC and Cmax ([8]; dose levels up to 50 mg): increased approximately dose proportionately | Drug excreted unchanged in the urine ([9]; single 5 mg): 13.6 % of the dose administered | Drug excreted unchanged in the urine ([9]; single 2000 mg): 0.6 % of the dose administered | Increase in AUC with food ([10]; 300 mg, fed vs fasted): 3.5 fold | Increase in Cmax with food ([10]; 300 mg, fed vs fasted): more than doubling | Increase in AUC at 2000 mg over 1200 mg ([10]; fed): 15% | Dose proportionality of exposure ([10]; fed, 600 and 1200 mg): approximately dose‐proportional | Dose proportionality of exposures ([11]; suspension BID, increasing dose levels): less than dose‐proportional | Mean steady state AUC0–12 ([11]; suspension, 1000 mg BID (2000 mg/day)): 24900 ng·h/mL | Day steady state achieved ([11]; suspension, 150 and 300 mg BID): 2 days | Day steady state achieved ([11]; suspension, 600 and 1000 mg BID): 6 days | Tmax ([12]; fasted): 2 h | Tmax ([12]; fed): 4 h | Dose proportionality of Cmax and AUC [13]: increased proportionally with dose | Day from which steady state achieved ([14]; 225 mg‐strength tablet, 900 mg BID): 3 days | Steady state AUC0‐12, tablet 900 mg BID vs suspension 1000 mg BID ([14]; in vivo): double | Extent of inhibition of nicotine‐induced α2 band response (α7 nAChR): partial | Cognition, PEPSY test battery (healthy volunteers [15]): no overall consistent effect on cognition | eVAS emotional stability vs placebo (healthy volunteers [16]; 5 min post CCK‐4 injection, P = 0.104): trend | PSS Sum Intensity score vs placebo (healthy volunteers [16]; 10 min post CCK‐4 injection, 15 evaluable responders, P < 0.041): significant reduction | PSS Total Symptom score vs placebo (healthy volunteers [16]; 10 min post CCK‐4 injection, 15 evaluable responders, P < 0.048): significant reduction | TEAE Fatigue (healthy volunteers [17]; [22]): 7 (4.1) n (%) | TEAE Headache (healthy volunteers [17]; [22]): 35 (20.2) n (%) | TEAE Nausea (healthy volunteers [17]; [22]): 8 (4.6) n (%) | TEAE Somnolence (healthy volunteers [17]; [22]): 16 (9.3) n (%) | Dose relationship of CNS TEAEs (headache, somnolence, nausea, fatigue) (healthy volunteers [17]; SAD and MAD trials): did not suggest a dose relationship | Serious adverse events (healthy volunteers [17]; eight Phase 1 trials): no serious adverse events were reported | Maximum tolerated dose (healthy volunteers [17]; up to 2000 mg suspension and 1200 mg tablet): No maximum tolerated dose was found | Total reaction time vs placebo (healthy volunteers [1]): no increases in total reaction time | Activity in behavioral models of anxiety and stress‐related disorders ([18]; broad therapeutic dosage range): effective | Side effects in rodent models ([18]; preclinical pharmacology and toxicology studies): did not elicit sedation, memory or motor impairment, or physical dependence | Threat avoidance behavior and self‐reported anxiety (patients with GAD): significantly reduced | Anxiety levels vs placebo [19]: improvements in anxiety levels | PTSD total symptom severity scores, depression, insomnia vs placebo (patients with PTSD): effective at significantly reducing | Plasma levels, population PK analysis [20]: appreciably lower than expected | ARCI 49 checklist (healthy volunteers [2]; trials BNC210.003, BNC210.004, BNC210.005): No clinically significant feelings associated with any classes of drugs of abuse | Peak saccadic velocity vs placebo (healthy volunteers [3]; 300 and 2000 mg): did not show any significant effect | qEEG alpha power (healthy volunteers [4]; 300 mg dose only): small decrease in alpha power | qEEG delta activity vs placebo (healthy volunteers [4]; 300 and 2000 mg): increased delta EEG activity in the resting condition, but not the Vigilance‐Controlled condition | qEEG delta power (healthy volunteers [4]; 300 and 2000 mg): some increase in delta power in the Resting condition only | Overlap of EEG profile with lorazepam (healthy volunteers [4]; in vivo): little overlap in EEG profiles | qEEG beta‐3 (healthy volunteers [4]; in vivo): only a slight increase | Karolinska Sleepiness Scale vs placebo (healthy volunteers [5]; 300 and 2000 mg): no increase in sleepiness | Effect on serum cortisol or ACTH (healthy volunteers [21]): No consistent effects | Digit Symbol Substitution Test vs placebo (healthy volunteers [6]; 300 mg, 6‐h P < 0.05): no effects with 300 mg, except at the 6‐h time point only | Digit Symbol Substitution Test vs placebo (healthy volunteers [6]; 2000 mg): no effects at any time point | Subjective feelings on VAS (16‐item Bond and Lader or eVAS) (healthy volunteers [7]; trials BNC210.001, .002, .003, .005, basal state): No effects on subjective feelings
